The numbers were not newly measured in patent US5952306A, “Integrin receptor antagonists” (Merck & Co., Inc., priority 1997, dated 1999), which cites them from elsewhere.

The test system of data set [1] is platelet aggregation and thrombus formation in mammalian blood.
The subject of data set [2] is cell attachment-promoting effects of fibronectin and vitronectin.

On to Echistatin, for which the block bone resorption result in the data set on bone resorption is “can effectively block bone resorption”.
Take “N-amidino-piperidine-3-carboxylglycyl-L-aspartyl-L-valine”: the “inhibit platelet aggregation and thrombus formation in mammalian blood” value in data set [1] was “inhibit platelet aggregation and thrombus formation”.
Turning to “arginine-glycine-aspartic acid [Arg-Gly-Asp]”, the “activity (duplicate or inhibit cell attachment-promoting effects)” value in data set [2] was “low activity”.
